According to patent US20230073755A1, “USE OF IGF1 IN COMBINATION WITH IGFEC24 IN PREPARATION OF MEDICINE FOR PROMOTING TISSUE REPAIR AND REGENERATION” (Chongqing University, priority 2020, published 2023):

Assays:
[1] = system: cardiomyocytes; assay: Cardiomyocyte proliferation effect assay (Edu), 13-month-old C57 mice; assay type: in vivo; conditions: aged (13-month-old) female mice; IGF1-24 100 μg/kg for 7 days; PBS group 0.5%; FIG. 3
Protocol: Female 13-month-old mice were divided into 2 groups, PBS group and IGF1-24 group, with 6 mice in each group, and the mice in each group were distinguished by ear tags for subsequent protein injection according to the different body weights of the mice. The mice in each group were injected with PBS and IGF1-24 for 7 consecutive days, and the recombinant protein IGF1-24 was injected at 100 μg/kg. After seven days of protein injection, Edu solution at a concentration of […] was injected intraperitoneally for seven consecutive days, so that the final total dose of each mouse reached 50 mg/kg. […]

[2] = system: skeletal muscle cells; assay: Skeletal muscle cell proliferation effect (Edu / Desmin immunofluorescence of gastrocnemius muscle), SD rats; assay type: in vivo; conditions: gastrocnemius muscle sections, FIG. 8
Protocol: In certain embodiments, adult female SD rats were divided into five groups: PBS group, IGF1 group, IGF1Ec group, IGF1-24 group, and IGF1+IGF1Ec24 peptide group, with three rats in each group. The rats in each group were distinguished by ear clipping for subsequent protein injection according to the different body weights of the rats.
The rats in each group were injected with PBS, IGF1, IGF1Ec24 peptide, IGF1Ec and IGF1-24 for 7 consecutive days. Recombinant protein IGF1-24 was injected at 100 μg/kg, and the injection of the remaining proteins in each group was converted according to the molar amount of IGF1-24 injection as follows: 90 μg/kg for IGF1, 8.9 μg/kg for IGF1Ec24 peptide, 104 μg/kg for IGF1Ec.
After seven days of protein injection, the intraperitoneal injection of Edu solution at a concentration of 2.5 mg/kg was performed for seven days, so that the final total dose of each rat reached 50 mg/kg. […]

IGF1-24: 97 amino acids: amino-terminal 70 identical to IGF1, carboxyl-terminal 24 identical to IGFEc24 peptide, joined by three Gly linkers (SEQ ID NO: 4)
number of Edu-positive cardiomyocytes [1]: 1.5%
number of Edu-positive skeletal muscle cells per square millimeter [2]: 28 per square millimeter
